“And” between values parts separate entries of the source, which are not always exact repeats. Equal values may be shown once.
How the values were obtained:
[1] = incubation concentration of 100 mM; cited from earlier work
HeLa cells = test: Cellular delivery studies with and without GO co-incubation, HeLa; assay type: cell-based; conditions: for Gd content (fmol/cell): 188 μM Gd(III), 24 h, replicate values; for Gd content (fmol/cell), Outliers: values removed as outliers (Chauvenet's criterion, * experimenter judgment)
Procedure: ICP-MS Samples were prepared in 15-mL conical tubes by adding ACS reagent grade nitric acid (70%), followed by incubation at 70° C. overnight to allow for complete sample digestion. The effectiveness of this digestion protocol was previously validated for GO. After incubation, a multi-element internal standard (containing Bi, Ho, In, Li, Sc, Tb, and Y, Inorganic Ventures, Christiansburg, Va.) and milli-Q water (18.2 MΩ·cm) were added to produce a final sample of 3% (v/v) nitric acid and 5 ng/mL internal standard.
ICP-MS was performed on a computer-controlled (Plasmalab software) Thermo X series II ICP-MS (Thermo Fisher Scientific, Waltham, Mass., USA) operating in standard mode equipped with an ESI SC-2 autosampler (Omaha, Nebr., USA). Each sample was acquired using 1 survey run (10 sweeps) and 3 main (peak jumping) runs (100 sweeps). The isotopes selected for analysis were Gd with In and Ho isotopes selected as internal standards for data interpolation. Instrument performance is optimized daily through an autotune followed by verification via a performance report (passing manufacturer specifications). Instrument calibration was accomplished by preparing individual-element Gd standards (Inorganic Ventures, Christiansburg, Va., USA) using concentrations of 0.78125, 1.5625, 3.125, 6.25, 12.50, 25.00, 50.00, 100.0, and 200.0 ng/mL containing 3.0% nitric acid (v/v) and 5.0 ng/mL of multi-element internal standard.
Dulbecco's modified phosphate buffered saline (DPBS), media, and dissociation reagents were purchased from Life Technologies (Carlsbad, Calif.). CorningBrand® cell culture consumables (flasks, plates, etc.) and sera were purchased from VWR Scientific (Radnor, Pa.). HeLa cells (ATCC® CCL-2™) and KB cells (ATCC® CCL-17™) were purchased from the American Type Culture Collection (ATCC, Manassas, Va.) and cultured in phenol red-free minimum essential media (MEM) supplemented with 10% fetal bovine serum (FBS). Prior to all experiments, cells were plated and allowed to incubate for 24 hours before dosing. Cells were harvested with 0.25% TrypLE for 5 minutes at 37° C. in a 5.0% CO2 incubator. For sterilization, all Gd(III)-labeled molecules were filtered with 0.2 μm sterile filters prior to concentration determination and storage at 4° C. GO was used as prepared without further sterilization. […] Cells were grown in a humidified incubator operating at 37° C. and 5.0% CO2.
Cell counting was conducted using a Guava EasyCyte Mini Personal Cell Analyzer (EMD Millipore, Billerica, Mass.). After cell harvesting, an aliquot (50 μL) of the cell suspensions was mixed with Guava ViaCount reagent (150 μL) and allowed to stain at room temperature for at least 5 minutes. The dilution factor of 4 was determined based upon optimum machine performance (20-150 cells/μL). After vortexing for 10 sec, stained cells were counted using a Guava EasyCyte Mini Personal Cell Analyzer (PCA) using the ViaCount software module. For each sample, 1000 events were acquired. Gating of live/dead and cell/debris classifications were performed manually by the operator.
Cellular delivery studies were performed with HeLa and KB cells. HeLa and KB were plated at a cell density of approximately 25,000 and 50,000 cells per well, respectively, in a 24-well plate as counted by a hemocytometer. Stock solutions of 1-14 (1 mM), 150 nm GO (100 μg/mL), and 1500 nm GO (100 μg/mL) were prepared using sterile Milli-Q water. Prior to dosing, 80 μL ([…]) of each GO (150 nm and 1500 nm) and 80 μL (80 nmol) of each Gd(III)-labeled molecule (1-14) were mixed and allowed to adsorb for at least 15 minutes. 150 μL Gd(III)-GO solutions were added to 250 μL media to give a final concentration of 188 μM Gd and 18.8 μg/mL GO. Cells were incubated with the mixture of Gd(III)-labeled molecules and GO for […]. To harvest, cells were rinsed in-plate three times with 500 μL PBS and trypsinized using 100 μL 0.25% TrypLE. […]

[2] = Octanol-water partition coefficients; assay type: physicochemical; conditions: errors show SEM; Gd in each layer by ICP-MS
Procedure: Approximately 1 mg of each compound was dissolved in 1 mL of a 1:1 mixture of water/1-octanol. After shaking the sample tube vigorously for 30 s, the tube was placed on a rotator for gentle mixing over 6 h. The tube was then removed from the rotator and allowed to sit for 12 h to ensure complete separation of the aqueous and organic phases. […] Once separation was complete, 10 μL was removed from each layer to determine the concentration of Gd by ICP-MS. The partition coefficient was calculated from the following equation: log10P=log10(Co/Cw), where log10 P is the logarithm of the partition coefficient, Co is the concentration of Gd in the 1-octanol layer, and Cw is the concentration of Gd in the water layer.

SMILES: CC(O)CN1CCN(CC(=O)[O-])CCN(CC(=O)[O-])CCN(CC(=O)[O-])CC1.[Gd+3] (stereo not shown) [Molecule 13, [Gd(HP-DO3A)(H2O)]]
- Highest cellular labeling reported to date [1]: 31 fmol Gd/cell

SMILES: CCCCc1cn(CC(O)CN2CCN(CC(=O)[O-])CCN(CC(=O)[O-])CCN(CC(=O)[O-])CC2)nn1.[Gd+3] (stereo not shown) [Molecule 1]
- Gd content (fmol/cell) (HeLa cells; +150 nm GO co-incubation, 18.8 μg/mL GO): 0.63 fmol/cell (2×) and 0.44 fmol/cell and 0.58 fmol/cell and 0.57 fmol/cell (2×) and 0.76 fmol/cell
- Gd content (fmol/cell), Outliers (HeLa cells; +150 nm GO): 1.11 fmol/cell and 1.24 fmol/cell
- Gd content (fmol/cell) (HeLa cells; +1500 nm GO co-incubation, 18.8 μg/mL GO): 0.59 fmol/cell and 0.58 fmol/cell and 0.39 fmol/cell and 0.77 fmol/cell and 0.86 fmol/cell and 0.76 fmol/cell and 0.64 fmol/cell
- Gd content (fmol/cell), Outliers (HeLa cells; +1500 nm GO): 1.18 fmol/cell and 1.45 fmol/cell
- Gd content (fmol/cell) (HeLa cells; molecule alone, without GO, 24-well plate): 0.62 fmol/cell and 0.67 fmol/cell and 0.36 fmol/cell and 0.63 fmol/cell and 0.40 fmol/cell
- Water-Octanol LogP [2]: −2.18 ± 0.02

Source: US10994016B2, “Graphene oxide mediated cellular delivery of gadolinium-labeled molecules” (Northwestern University, priority 2015, dated 2021)
